Measured values reported in patent US8491946B2, “Elastase inhibitor” (Shiseido Company, Ltd., priority 2010, dated 2013).
Entries after “also recorded” stand apart in the source; their conditions may differ.

Biological target: T1, Human leukocyte-derived elastase (Homo sapiens, UniProt P08246)
T1 construct: purchased Elastin Product Co., Inc. CK828; host or cells: human leukocytes (leukocyte-derived)
T1 sequence (P08246 30-247 limits assumed): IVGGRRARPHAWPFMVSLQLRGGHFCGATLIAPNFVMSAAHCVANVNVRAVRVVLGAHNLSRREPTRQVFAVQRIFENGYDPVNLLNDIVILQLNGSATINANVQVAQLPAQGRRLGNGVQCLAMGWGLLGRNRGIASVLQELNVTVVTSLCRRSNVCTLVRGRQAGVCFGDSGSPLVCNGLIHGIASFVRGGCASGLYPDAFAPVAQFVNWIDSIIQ
Assay: elastase inhibition assay with fluorogenic substrate
Assay type: biochemical
Details: FIG. 1; drug alone or raspberry extract combined with hydroxyproline; 60 minutes at 37° C.
Procedure: A solution containing 0.1 M HEPES and 0.5 M NaCl (pH 7.5) was used as a reaction buffer. Oxysuccinyl-(Ala)2-Pro-Val-MCA (Peptide Institute Cat. No. 3153-v) was used for the elastase substrate and dissolved in DMSO to a concentration of 80 mM followed by diluting to 0.16 mM with the reaction buffer. Human leukocyte-derived elastase (Elastin Product Co., Inc. Cat No. CK828) was diluted to 5 μg/mL with the reaction buffer.
25 μL aliquots of the 0.16 mM elastase substrate were dispensed into the wells of a 96-well plate followed by the addition of 50 μL of each drug. Next, 25 μL of ice-cooled 5 μg/mL elastase were added and incubated for 60 minutes at 37° C. followed by measuring fluorescence at 460 nm at an exciting wavelength of 369 nm. Raspberry extract BG manufactured by Maruzen Pharmaceuticals was used for the raspberry extract, L-hydroxyproline manufactured by Kyowa Hakko was used for the hydroxyproline, and Biodyne EMPP™ manufactured by Arch Personal Care Products L.P. was used for the yeast extract. Raspberry extract BG is a 1,3-butyleneglycol (50% aqueous solution) extract of raspberry fruit.

Compound: O=C(O)[C@@H]1C[C@@H](O)CN1 [hydroxyproline, L-hydroxyproline]
- elastase inhibitory effects: elastase inhibitory effects were not demonstrated; also recorded: does not demonstrate elastase inhibitory effects alone
